Assay results reported in patent US12612360B2 (Sanofi, priority 2020, dated 2026).

Biological target: T1, ERα (Homo sapiens, UniProt P03372)
T1 construct: host or cells: MCF7
T1 sequence (P03372 1-595): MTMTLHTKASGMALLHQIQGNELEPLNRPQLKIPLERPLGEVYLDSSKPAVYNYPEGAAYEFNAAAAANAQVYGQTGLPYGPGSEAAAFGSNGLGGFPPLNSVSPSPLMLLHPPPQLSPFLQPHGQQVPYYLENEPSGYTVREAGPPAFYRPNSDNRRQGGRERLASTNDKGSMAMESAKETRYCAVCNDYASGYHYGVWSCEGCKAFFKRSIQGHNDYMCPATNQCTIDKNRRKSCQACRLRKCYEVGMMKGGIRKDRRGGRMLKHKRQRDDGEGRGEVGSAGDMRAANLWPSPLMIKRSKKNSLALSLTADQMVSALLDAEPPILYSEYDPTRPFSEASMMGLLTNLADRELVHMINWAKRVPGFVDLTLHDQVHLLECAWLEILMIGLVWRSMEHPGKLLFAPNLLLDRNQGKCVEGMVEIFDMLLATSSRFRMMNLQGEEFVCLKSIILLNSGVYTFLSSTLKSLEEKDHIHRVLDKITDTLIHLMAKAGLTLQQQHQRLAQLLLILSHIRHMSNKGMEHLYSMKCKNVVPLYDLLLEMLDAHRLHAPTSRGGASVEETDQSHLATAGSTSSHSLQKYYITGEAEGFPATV
Experiment: Estrogen receptor degradation activity: breast cancer cell ERα in cell western assay (MCF7 cells)
Type: cell-based
Settings: for % Degradation At 0.3 μM: 4 hours, relative to fulvestrant 0.1 μM positive control; for DC50: 4 hours post compound addition, concentration which degrades 50% of the estrogen receptor, read-out: Degradation IC50
Outline: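 In-cell western readout: ERα immunofluorescence (Alexa 488) normalised to DNA signal (Syto-64) after formalin fixation. Compounds dosed for 4 h on MCF7 cells in stripped-serum, phenol-red-free medium over nine 1:5 steps, 0.3 to […] final; fulvestrant 0.1 μM control. IC50 in nM for 50% ERα degradation.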

| SMILES | % Degradation At 0.3 μM [%] | DC50 [nM] |
| --- | --- | --- |
| O=C(O)c1ccc2c(c1)CCCC(c1cccc(Cl)c1)=C2c1ccc(C=C2CN(CCCF)C2)cc1 [Example 180, 8-(3-chlorophenyl)-9-(4-((1-(3-fluoropropyl)azetidin-3-ylidene)methyl)phenyl)-6,7-dihydro-5H-benzo[7]annulene-3-carboxylic acid] | 90 | 0.5 |
| O=C(O)c1ccc2c(c1)CCCC(c1ccc(Cl)cc1C(F)(F)F)=C2c1ccc(C=C2CN(CCC(F)F)C2)cc1 [Example 128, 8-(4-chloro-2-(trifluoromethyl)phenyl)-9-(4-((1-(3,3-difluoropropyl)azetidin-3-ylidene)methyl)phenyl)-6,7-dihydro-5H-benzo[7]annulene-3-carboxylic acid] | 93 | 1.1 |
| O=C(O)c1ccc2c(c1)CCCC(c1c(F)ccc3c1CCC3)=C2c1ccc(C=C2CN(CCCF)C2)cc1 [Example 6, 8-(5-fluoro-2,3-dihydro-1H-inden-4-yl)-9-(4-((1-(3-fluoropropyl)azetidin-3-ylidene)methyl)phenyl)-6,7-dihydro-5H-benzo[7]annulene-3-carboxylic acid] | 92 | 0.4 |
| O=C(O)c1ccc2c(c1)CCCC(c1cccc(Cl)c1C(F)(F)F)=C2c1ccc(C=C2CN(CCC(F)F)C2)cc1 [Example 13, 8-(3-chloro-2-(trifluoromethyl)phenyl)-9-(4-((1-(3,3-difluoropropyl)azetidin-3-ylidene)methyl)phenyl)-6,7-dihydro-5H-benzo[7]annulene-3-carboxylic acid] | 89 | 0.5 |
| Cl.O=C(O)c1ccc2c(c1)CCCC(c1ccccc1C(F)(F)F)=C2c1ccc(C=C2CN(CCCF)C2)cc1 [Example 183, 9-(4-((1-(3-fluoropropyl)azetidin-3-ylidene)methyl)phenyl)-8-(2-(trifluoromethyl)phenyl)-6,7-dihydro-5H-benzo[7]annulene-3-carboxylic acid hydrochloride] | 92 | 0.4 |
| O=C(O)c1ccc2c(c1)CCCC(c1ccc(Cl)cc1Cl)=C2c1ccc(C=C2CN(CCCF)C2)cn1 [Example 159, 8-(2,4-Dichlorophenyl)-9-(5-((1-(3-fluoropropyl)azetidin-3-ylidene)methyl)pyridin-2-yl)-6,7-dihydro-5H-benzo[7]annulene-3-carboxylic acid] | 97 | 20.4 |
| Cc1cc(F)ccc1C1=C(c2c(F)cc(C=C3CN(CCCF)C3)cc2F)c2ccc(C(=O)O)cc2CCC1 [Example 68] | 96 | 0.3 |
| CCc1cc(F)ccc1C1=C(c2ccc(C=C3CN(CCCF)C3)cc2)c2ccc(C(=O)O)cc2CCC1 [Example 96, 8-(2-ethyl-4-fluorophenyl)-9-(4-((1-(3-fluoropropyl)azetidin-3-ylidene)methyl)phenyl)-6,7-dihydro-5H-benzo[7]annulene-3-carboxylic acid] | 98 | 0.2 |
| O=C(O)c1ccc2c(c1)CCCC(c1ccc(C(F)(F)F)c(C(F)(F)F)c1)=C2c1ccc(C=C2CN(CCCF)C2)cc1 [Example 146, 8-(3,4-bis(trifluoromethyl)phenyl)-9-(4-((1-(3-fluoropropyl)azetidin-3-ylidene)methyl)phenyl)-6,7-dihydro-5H-benzo[7]annulene-3-carboxylic acid] | 88 | 1.4 |
| O=C([O-])c1ccc2c(c1)CCCC(c1ccc(F)cc1F)=C2c1ccc(C=C2CN(CCCF)C2)cc1F.[Na+] [Example 142, Sodium 8-(2,4-difluorophenyl)-9-(2-fluoro-4-((1-(3-fluoropropyl)azetidin-3-ylidene)methyl)phenyl)-6,7-dihydro-5H-benzo[7]annulene-3-carboxylate] | 96 | 0.3 |
| COc1ccc(C(F)(F)F)cc1C1=C(c2ccc(C=C3CN(CCCF)C3)cc2)c2ccc(C(=O)O)cc2CCC1 [Example 137] | 92 | 3.7 |
| O=C(O)c1ccc2c(c1)CCCC(c1cccc(F)c1C(F)(F)F)=C2c1ccc(C=C2CN(CCC(F)F)C2)cc1 [Example 26, 9-(4-((1-(3,3-difluoropropyl)azetidin-3-ylidene)methyl)phenyl)-8-(3-fluoro-2-(trifluoromethyl)phenyl)-6,7-dihydro-5H-benzo[7]annulene-3-carboxylic acid] | 91 | 0.4 |
| O=C(O)c1ccc2c(c1)CCCC(c1ccc(Cl)cc1F)=C2c1ccc(C=C2CN(CCCF)C2)cc1 [Example 58, 8-(4-chloro-2-fluorophenyl)-9-(4-((1-(3-fluoropropyl)azetidin-3-ylidene)methyl)phenyl)-6,7-dihydro-5H-benzo[7]annulene-3-carboxylic acid] | 99 | 0.2 |
| Cc1cc(Cl)ccc1C1=C(c2ccc(C=C3CN(CCC(F)F)C3)cc2)c2ccc(C(=O)O)cc2CCC1 [Example 132, 8-(4-chloro-2-methylphenyl)-9-(4-((1-(3,3-difluoropropyl)azetidin-3-ylidene)methyl)phenyl)-6,7-dihydro-5H-benzo[7]annulene-3-carboxylic acid] | 95 | 0.8 |
| O=C(O)c1ccc2c(c1)CCCC(c1ccc(F)cc1Cl)=C2c1ccc(C=C2CN(CCCF)C2)cc1 [Example 79, 8-(2-chloro-4-fluorophenyl)-9-(4-((1-(3-fluoropropyl)azetidin-3-ylidene)methyl)phenyl)-6,7-dihydro-5H-benzo[7]annulene-3-carboxylic acid] | 97 | 0.4 |
| Cc1ccc(C(F)(F)F)cc1C1=C(c2ccc(C=C3CN(CCCF)C3)cc2)c2ccc(C(=O)O)cc2CCC1 [Example 136, 9-(4-((1-(3-fluoropropyl)azetidin-3-ylidene)methyl)phenyl)-8-(2-methyl-5-(trifluoromethyl)phenyl)-6,7-dihydro-5H-benzo[7]annulene-3-carboxylic acid] | 92 | 0.8 |
| O=C(O)c1ccc2c(c1)CCCC(C1CC13CCC3)=C2c1ccc(C=C2CN(CCCF)C2)cc1 (stereo not shown) [Example 176, 9-(4-((1-(3-fluoropropyl)azetidin-3-ylidene)methyl)phenyl)-8-(spiro[2.3]hexan-1-yl)-6,7-dihydro-5H-benzo[7]annulene-3-carboxylic acid] | 93 | 0.3 |
| O=C(O)c1ccc2c(c1)CCCC(c1ccc(F)cc1F)=C2c1ccc(C=C2CN(CCC(F)F)C2)cc1 [Example 20, 8-(2,4-difluorophenyl)-9-(4-((1-(3,3-difluoropropyl)azetidin-3-ylidene)methyl)phenyl)-6,7-dihydro-5H-benzo[7]annulene-3-carboxylic acid] | 92 | 0.3 |
| Cl.O=C(O)c1ccc2c(c1)CCCC(c1cccc(C(F)(F)F)c1)=C2c1ccc(C=C2CN(CCCF)C2)cc1 [Example 182, 9-(4-((1-(3-fluoropropyl)azetidin-3-ylidene)methyl)phenyl)-8-(3-(trifluoromethyl)phenyl)-6,7-dihydro-5H-benzo[7]annulene-3-carboxylic acid hydrochloride] | 89 | 0.6 |
| Cc1cccc(C2=C(c3ccc(C=C4CN(CCCF)C4)cc3)c3ccc(C(=O)O)cc3CCC2)c1C [Example 94, 8-(2,3-dimethylphenyl)-9-(4-((1-(3-fluoropropyl)azetidin-3-ylidene)methyl)phenyl)-6,7-dihydro-5H-benzo[7]annulene-3-carboxylic acid] | 96 | 0.2 |
| [2H]C([2H])(CC(F)F)N1CC(=Cc2ccc(C3=C(c4ccc(Cl)cc4Cl)CCCc4cc(C(=O)O)ccc43)cc2)C1 [Example 117, 8-(2,4-dichlorophenyl)-9-(4-((1-(3,3-difluoropropyl-1,1-d2)azetidin-3-ylidene)methyl)phenyl)-6,7-dihydro-5H-benzo[7]annulene-3-carboxylic acid] | 90 | 0.9 |
| Cc1c(F)ccc(C2=C(c3ccc(C=C4CN(CCCF)C4)cc3)c3ccc(C(=O)O)cc3CCC2)c1C [Example 87, 8-(4-fluoro-2,3-dimethylphenyl)-9-(4-((1-(3-fluoropropyl)azetidin-3-ylidene)methyl)phenyl)-6,7-dihydro-5H-benzo[7]annulene-3-carboxylic acid] | 94 | 0.4 |
| Cc1ccc(C(F)(F)F)c(C2=C(c3ccc(C=C4CN(CCCF)C4)cc3)c3ccc(C(=O)O)cc3CCC2)c1 [Example 119, 9-(4-((1-(3-fluoropropyl)azetidin-3-ylidene)methyl)phenyl)-8-(5-methyl-2-(trifluoromethyl)phenyl)-6,7-dihydro-5H-benzo[7]annulene-3-carboxylic acid] | 94 | 0.9 |
